In publication PMC4171606, “A novel copper(I) complex induces ER-stress-mediated apoptosis and sensitizes B-acute lymphoblastic leukemia cells to chemotherapeutic agents” (Oncotarget, 2014):

Tests used:
[1] = test system: human leukemia cell lines; experiment: MTT growth inhibition, panel of twelve leukemia cell lines, 72 h; assay type: cell-based; conditions: healthy lymphocytes vs B-leukemia cells
Protocol: [Cu(thp)4][PF6] (CP) was evaluated for its growth inhibition activity on a panel of twelve different human leukemia cell lines (five B-acute lymphoblastic leukemia, three T-acute lymphoblastic leukemia, three acute myeloid leukemia and one chronic myeloid leukemia). Cells were treated for 72 h with CP and cell viability was evaluated by MTT test. […] This abnormal high expression of proteasomal proteins and mRNA seem to be correlated to the hyperproliferation of these cancer cells and to the sensitivity towards proteasome inhibitors.
The human leukemia cell lines RS 4;11, SEM, REH, RCH-ACV, MHH-CALL2, Jurkat, CCRF-CEM, HSB2, HL-60, K562, THP-1, MV4;11 were purchased from the American Type Culture Collection. Cells were cultured in RPMI 1640 (Life Technologies, Italy) supplemented with 10% fetal bovine serum (FBS), glutamine (2 mM; Life Technologies, Italy), penicillin (100 U/ml; Life Technologies, Italy) and streptomycin (100 μg/ml; Life Technologies, Italy), and maintained at 37°C in a humidified atmosphere with 5% CO2. The cytotoxic activity of CP was determined using a standard 3-[4,5-dimethylthiazol-2-yl]-2,5-diphenyltetrazodium bromide (MTT) based colorimetric assay (Sigma-Aldrich, Italy). Briefly, cells were seeded at a density of 2×10^4 cells/well in 96-well microtiter plates. After 24 h, cells were exposed to the test compound. After different times, cell survival was determined by the addition of an MTT solution as previously described.

caspase-12 = experiment: Western blot, cleaved caspase-12; assay type: cell-based, human
Protocol: FIGURE 2 CP induces caspase-dependent apoptosis without mitochondria involvement (A) Assessment of mitochondrial membrane potential (ΔΨmt) after treatment of RS4;11 and SEM cells with CP (2.5 μM) for the indicated times. Cells were stained with the fluorescent probe JC-1. Data are represented as mean ± S.E.M. of three independent experiments. (B) Flow cytometric analysis of RS4;11 and SEM cells treated with CP (2.5 μM) for 24 h showing cytochrome c labeled with a monoclonal antibody conjugated to FITC. Representative image of three experiments with similar results. (C) Cells were incubated with CP 2.5 μM and 5 μM in the presence or absence of the pan-caspase inhibitor z-VAD.fmk (100 μM). Cell viability was determined after 48 h by MTT assay. Data are represented as mean ± S.E.M. of three independent experiments performed in triplicate. *p<0.01 vs CP alone. (D) Western blot analysis of Bcl-2, cleaved caspase-12, caspase-9, cleaved caspase-7, caspase-3 and PARP after treatment of SEM and RS4;11 cells with CP (2.5 μM) for the indicated times. To confirm equal protein loading, each membrane was stripped and reprobed with anti-β-actin antibody. […]
Cells were treated with CP and, after different times, were collected, centrifuged and washed with ice cold phosphate-buffered saline (PBS). […] The protein concentration in the supernatant was determined using the BCA protein assay (Pierce, Italy). […]

ubiquitinated proteins = experiment: Western blot, Ubiquitin accumulation; assay type: cell-based, human
Protocol: FIGURE 3 CP treatment affects Ubiquitin Proteasome System (UPS) 26S proteasome (100 μg) semipurified from (A) SEM and (B) RS4;11 cells was incubated for 60 min at 37 °C with CP at different concentrations. Chymotrypsin (CT), trypsin (T) and peptidyl glutamyl peptide hydrolyzing (PGPH) catalytic activity were measured fluorimetrically (excitation 370, nm emission 460) by following the release of free AMC from synthetic substrates N-Suc-Leu-Leu-Val-Tyr-AMC, Boc-Gln-Ala-Arg-AMC and Z-Leu-Leu-Glu-AMC, specific for CT, T and PGPH activity, respectively. (C) Cells were incubated with CP 2.5 μM for the indicated times and then western blot analyses were performed to evaluate Ubiquitin accumulation.
In normal conditions, misfolded proteins in the ER are driven to the cytoplasm, where upon ubiquitination, are degraded by the proteasome system. […] To assess if CP worked as other proteasome inhibitors, we evaluated the accumulation of ubiquitin after 1.5, 3, and 6 h of treatment.
Cells were treated with CP and, after different times, were collected, centrifuged and washed with ice cold phosphate-buffered saline (PBS). The pellet was then resuspended in lysis buffer as described. The protein concentration in the supernatant was determined using the BCA protein assay (Pierce, Italy). […]

[2] = test system: Blast cells from B-ALL patients; experiment: MTT growth inhibition on primary cultures, 24 h; assay type: cell-based, human; conditions: B-acute lymphoblastic leukemia patients primary cultures
Protocol: CP growth inhibitory activity was measured on primary cultures derived from pediatric patients affected by B-acute lymphoblastic leukemia. […] In particular, in resting and in PHA-stimulated PBMC, and in CD19^+ cells GI50 was higher than 10 μM confirming that CP preferentially affects leukemia cells.
FIGURE 6 CP effects on B-ALL primary cultures (A) Blast cells from six B-ALL patients were incubated for 24 h with different concentrations of CP. For the sake of comparison CD19^+ cells from peripheral blood of healthy donors, and PBMC were also incubated with CP in the presence or absence of PHA. Cell viability were assayed by MTT analysis. Data are represented as mean ± S.E.M of four independent experiments. […] Cell viability was evaluated on the whole population by flow cytometry after staining the cells with Annexin-V-FITC and PI. are represented as mean ± S.E.M of 3 independent experiments. […]
The human leukemia cell lines RS 4;11, SEM, REH, RCH-ACV, MHH-CALL2, Jurkat, CCRF-CEM, HSB2, HL-60, K562, THP-1, MV4;11 were purchased from the American Type Culture Collection. […] The cytotoxic activity of CP was determined using a standard 3-[4,5-dimethylthiazol-2-yl]-2,5-diphenyltetrazodium bromide (MTT) based colorimetric assay (Sigma-Aldrich, Italy). […] After different times, cell survival was determined by the addition of an MTT solution as previously described. […]

F[P-](F)(F)(F)(F)F.OCP(CO)CO.OCP(CO)CO.OCP(CO)CO.OCP(CO)CO.[Cu+] [CP, [Cu(thp)4][PF6]]
cytotoxic activity on healthy lymphocytes lower than B-leukemia cells [1]: 5-10 fold
onset of caspase-12 activation (caspase-12; RS4;11, CP 2.5 μM): ≥ 1.5 h
onset of caspase-12 activation (caspase-12; SEM, CP 2.5 μM): ≥ 3 h
onset of accumulation of ubiquitinated proteins (ubiquitinated proteins; RS4;11, CP 2.5 μM): ≥ 3 h
onset of accumulation of ubiquitinated proteins (ubiquitinated proteins; SEM, CP 2.5 μM): ≥ 1.5 h
GI50 [2]: 2300 nM
